According to US10039771B2, “Method for cancer cell reprogramming” (STC.UNM, priority 2013, dated 2018):
Blank lines part the entries; values can stand above or below the compound they belong to.

Columns and labels:
U937 cells [1] = test: Annexin V-PE/7-AAD apoptosis assay; type: cell-based; conditions: Homo sapiens
Source text: To detect apoptosis we used an Annexin V and 7-amino-actinomycin D (7-AAD) based assay. Annexin V is a protein that has high binding affinity to phosphatidylserine, which is translocated from the inner to the outer leaflet of the membrane during early apoptosis. 7-AAD is a DNA dye that stains cells only when the cell membranes are permeable. Thus, double positive events are considered to represent end stage apoptosis and dead cells. […] The results obtained using this assay correlated well with the results of other assays:
Six-well plates were set up with dose responses for each of the 11 hit compounds (artemisinin, artemether, artesunate, dihydroartemisinin, parthenolide, patulin, clioquinol, cryptotanshinone, pyrithione zinc, harmalol, quinalizarin). Each well contained 2.5×10^6 U937 cells in 5 mL cRPMI. To each well, 15 μL of compound in DMSO (or vehicle control) was fTadded, giving final concentrations of 0, 300 nM, and 1, 3, 10, and 30 […] were incubated overnight, at 37° C., 5% CO2/95% air. The compound effects on apoptosis were assessed with an Annexin V-PE/7-amino-actinomycin D (7-AAD) kit (BD Pharmingen™ cat. no. 559763), according to manufacturer protocol, and data were collected with a BD Accuri™ C6 flow cytometer. A gate was set for live cells, and 10,000 gated events were collected per sample. FL-2 versus FL-3 channel dot plots were divided into quadrants and were used to determine percentages of gated cells that were Annexin V^−/7-AAD^− (live, healthy cells), Annexin V^+/7-AAD^− (early apoptosis), or Annexin V^+/7-AAD^+ (late, full apoptosis).
[…] The samples were plotted as Annexin V vs 7-AAD and quadrant-gated. Annexin V^+, 7-AAD^− events are indicative of early apoptosis, in which phosphatidyl serine has flipped to the outer leaflet of the cell membrane. Annexin V^+, 7-AAD^+ (double positive) events indicate cell and nuclear membrane permeabilization, marking late apoptotic events or complete cell death.

U937 cells [2] = test: F-cAMP (Alexa 488-cAMP) efflux assay / high throughput flow cytometry screen; type: cell-based, human; conditions: for Hit status in preliminary screen for cAMP efflux inhibitors: Prestwick/SPECTRUM library screen, U937 cells
Experimental: U937 cell were loaded with the analog by a method relying on osmotic lysis of pinocytic vesicles (15). After incubation, cell fluorescence decreased to a level that was close to cell autofluorescence.
Briefly, cells were concentrated and washed, with resuspension NF-RPMI (cRPMI without FBS). Cells were then resuspended in an NF-RPMI hypertonic solution containing poly(ethylene glycol) 1,000 (PEG), sucrose, and Alexa Fluor® 488 8-(6-aminohexyl) aminoadenosine 3′,5′-cyclicmonophosphate, bis(triethylammonium) salt, hereafter referred to as F-cAMP, to give a final concentration of 4.76 mM F-cAMP. Cells were incubated for 10 min, room temperature, then centrifuged and resuspended in hypotonic solution (60% cRPMI, 40% sterile water) for 2 min at room temperature to complete the F-cAMP loading. The cells were then washed and resuspended in cRPMI at a final concentration of 4×10^5 cells/mL, and allowed to equilibrate for 2 hours in a 37° C., 5% CO2/95% air incubator.
The remainder of the cells was incubated (37° C., 5% CO2/95% air) in the presence of dimethyl sulfoxide (DMSO) vehicle or compounds overnight. Flow cytometry was used to measure samples, and unstained U937 cells were used to create a gate to mark viable cells. Control and experimental samples were excited with a 488 nm laser and analyzed for FL-1 median fluorescence intensity (MFI) within that gate.
For the high throughput screening assay (HTS), U937 cells were loaded with F-cAMP as described above. Solutions were added to 384-well plates (Greiner 784201) with a Biomek FX Multichannel system (Beckman-Coulter) and/or MicroFlo as follows: 1) 5 μL cRPMI; 2) 100 nL compounds from the Prestwick Chemical Library or Spectrum 2000 Library in DMSO were delivered by pintool (V&P Scientific, San Diego, Calif.), final DMSO concentration=1%; 3) 5 μL F-cAMP cells. Negative control wells contained stained cells with 1% DMSO only. For positive controls, F-cAMP cells were treated with 200 μM MK-571. The final concentration for all conditions was 2000 cells/well. The plates were sealed with foil, and incubated (37° C., 5% CO2/95% air) inverted overnight.
After incubation, the 384-well sample plates were analyzed by CyAn flow cytometers (Beckman-Coulter) configured with HyperCyt high throughput auto-sampler systems (IntelliCyt Albuquerque, N. Mex.). The samples were interrogated with 488 nm lasers to assess FL-1 MCI levels.
Data from the HTS were analyzed with HyperView software (IntelliCyt, Albuquerque, N. Mex.) and gated on untreated, live cell populations and then time-gated to separate data per well. FL-1 MCI values for the samples were analyzed per plate. Those samples which reported MCI values≥2 standard deviations above the plate mean negative control values were considered “hit” compounds.
To validate the identified samples and decrease the number of potential false-positive compounds, the hit compounds were assayed in a high-throughput dose response assay. This assay set up 384-well plates with the same volumes of F-cAMP cells, cRPMI, and DMSO/compounds as in the HTS, with the plate formats containing 10-well dose responses for each hit compound, at final concentrations ranging 30 μM to 4 nM. These plates were also foil-sealed, and incubated inverted overnight. Post-incubation, the dose response plates were analyzed by high throughput flow cytometry, as above. […]

Reh cells = test: Cross-cell line test for cAMP efflux (F-cAMP); type: cell-based, human; conditions: 37° C., 100 μM MK-571, overnight
Experimental: (§1) To study the differences in cAMP-removal, cells were loaded with a fluorescent cAMP-analog, and incubated under different conditions: low temperature (4° C.) used to estimate the passive probe “leakage”, and physiological temperature (37° C.) used to assess active removal of the probe.
(§2) Briefly, 15 million cells were loaded with F-cAMP via the osmotic process detailed above. Small volumes of cells were analyzed by flow cytometry post-staining to determine baseline fluorescence values based on MFI. […] The remaining cells were split in half, and one group was treated with a final concentration of 100 μM MK-571, while the other received DMSO-only at an equal volume. These two groups of cells were incubated ˜24 hr according to standard tissue culture conditions (37° C., 5% CO2/95% air). After incubation, cells were analyzed with flow cytometry for FL-1 MFI.
(§3) Because cells loaded with F-cAMP were washed, the resulting concentration gradient could have caused a “passive leak” of the probe. All 6 cell lines appeared to efflux F-cAMP, although to different extents (FIG. 7A a). After incubation at 4° C., the cells lost 20-60% of their fluorescence from the initial F-cAMP loading.

Nalm 6 cells = test: Cross-cell line test for cAMP efflux (F-cAMP); type: cell-based, human; conditions: Nalm 6, 37° C., 100 μM MK-571, overnight
Experimental: as §1, §2, §3

RS4; 11 cells = test: Cross-cell line test for cAMP efflux (F-cAMP); type: cell-based, human; conditions: 11, 37° C., 100 μM MK-571, overnight
Experimental: as §1, §2, §3

Sup B15 cells = test: Cross-cell line test for cAMP efflux (F-cAMP); type: cell-based, human; conditions: Sup B15, 37° C., 100 μM MK-571, overnight
Experimental: as §1, §2, §3

MHH Call 3 cells = test: Cross-cell line test for cAMP efflux (F-cAMP); type: cell-based, human; conditions: MHH Call 3, 37° C., 100 μM MK-571, overnight
Experimental: as §1, §2, §3

697 cells = test: Cross-cell line test for cAMP efflux (F-cAMP); type: cell-based, human; conditions: 697, 37° C., 100 μM MK-571, overnight
Experimental: as §1, §2, §3

U937 cells [3] = test: Propidium iodide cell cycle assay; conditions: 24 hour incubation, dose response
U937 cells [4] = test: CellTrace CFSE cell proliferation assay; conditions: 3 μM, 48 hr
[5] = system: healthy human peripheral blood mononuclear cells (PBMCs); test: Cell TiterGlo luminescent cell viability assay in PBMCs
[6] = U-937, U937 cells, overnight incubation, dose responses 300 nM to 30 μM, read-out: Calculated EC50 values from Annexin V, 7-AAD double positive events
[7] = U-937, read-out: Calculated EC50 values from Annexin V, 7-AAD double positive events

SMILES: CC1=NCCc2c1[nH]c1cc(O)ccc21 [Harmalol, harmalol]
EC50 (U937 cells [1]; [6]): 283 µM

SMILES: O=C1C=C2C(=CCOC2O)O1 (stereo not drawn) [Patulin, patulin]
EC50 (U937 cells [1]; [7]): 3.29 µM
Effect on cell division (CFSE fluorescence) (U937 cells [4]): arrest of cell division within 48 hr

SMILES: [O-][n+]1ccccc1[S-].[O-][n+]1ccccc1[S-].[Zn+2] [Pyrithione zinc, pyrithione zinc]
Selectivity: concentrations required by leukemic cells versus PBMCs (calculated EC50 values) ([5]; viability EC50, leukemic cell lines vs PBMCs): exception

SMILES: C[C@H]1COC2=C1C(=O)C(=O)c1c2ccc2c1CCCC2(C)C [Cryptotanshinone, cryptotanshinone]
EC50 (U937 cells [1]; [7]): 53.5 µM
EC50 ([5]; Homo sapiens, PBMC, read-out: EC50 for decreased PBMC viability): ~12 µM

SMILES: CC1=C(CC(=O)O)c2cc(F)ccc2/C1=C\c1ccc([S+](C)[O-])cc1 (stereo not drawn) [sulindac]
Hit status in preliminary screen for cAMP efflux inhibitors (U937 cells [2]): did not come out as hits

SMILES: O=C(O)Cc1ccccc1Nc1c(Cl)cccc1Cl [diclofenac]
Hit status in preliminary screen for cAMP efflux inhibitors (U937 cells [2]): did not come out as hits

SMILES: CC[C@@]1(O)C(=O)OCc2c1cc1n(c2=O)Cc2cc3c(CN(C)C)c(O)ccc3nc2-1 [topotecan]
Hit status in preliminary screen for cAMP efflux inhibitors (U937 cells [2]): did not come out as hits

The next lines start with results.

EC50 (U937 cells [1]; [6]): 106 µM
SMILES: CO[C@H]1O[C@@H]2O[C@@]3(C)CC[C@H]4[C@H](C)CC[C@@H]([C@H]1C)[C@@]24OO3 [Artemether, artemether]

EC50 (U937 cells [2]; Homo sapiens, U-937, read-out: EC50 for inhibition of cAMP efflux calculated in assay development, U937 cells loaded with F-cAMP, overnight): 31 µM
SMILES: CN(C)C(=O)CCSC(SCCC(=O)O)c1cccc(/C=C/c2ccc3ccc(Cl)cc3n2)c1 (stereo not drawn) [MK-571]
Effect on cAMP efflux (U937 cells [2]; U937 cells loaded with F-cAMP, overnight): down-modulated cAMP efflux in a dose-dependent manner
F-cAMP probe removed in the presence of MK-571 (Reh cells): 30-40%
F-cAMP probe removed in the presence of MK-571 (Nalm 6 cells): 60-70%
F-cAMP probe removed in the presence of MK-571 (RS4; 11 cells): 30-40%
F-cAMP efflux in the presence of MK-571 (Sup B15 cells): blocked completely
F-cAMP efflux in the presence of MK-571 (MHH Call 3 cells): blocked completely
F-cAMP probe removed in the presence of MK-571 (697 cells): 60-70%

EC50 (U937 cells [1]; [6]): 99.1 µM
SMILES: C[C@H]1[C@H](OC(=O)CCC(=O)O)O[C@@H]2O[C@@]3(C)CC[C@H]4[C@H](C)CC[C@@H]1[C@@]24OO3 [Artesunate, artesunate]
Effect on cell cycle (PI staining) (U937 cells [3]): increased percentages of cells in G1 or apoptosis in a dose-dependent manner

EC50 (U937 cells [1]; [6]): 249 µM
SMILES: C[C@@H]1CC[C@H]2[C@@H](C)C(=O)O[C@@H]3O[C@@]4(C)CC[C@@H]1[C@]32OO4 [Artemisinin, artemisinin]

EC50 (U937 cells [1]; [6]): 172 µM
SMILES: O=C1c2ccc(O)c(O)c2C(=O)c2c(O)ccc(O)c21 [Quinalizarin, quinalizarin]

EC50 (U937 cells [1]; [6]): 55.7 µM
SMILES: C[C@H]1[C@@H](O)O[C@@H]2O[C@@]3(C)CC[C@H]4[C@H](C)CC[C@@H]1[C@@]24OO3 [Dihydroartemisinin, dihydroartemisinin]

EC50 (U937 cells [1]; [6]): 76.6 µM
SMILES: Oc1c(I)cc(Cl)c2cccnc12 [Clioquinol, clioquinol]
